From patent publication US7279444B2, “Substituted benzoylpyrazoles” (Bayer CropScience GmbH, priority 1999, dated 2007)
Marks after values point to notes of the source that are not given here.

System: not given
Assay: not given
Settings: not given

Row | melting point [°C] | SMILES
1 | 207 | Cn1c(C(F)(F)F)nn(Cc2c(Cl)ccc(C(=O)O)c2Cl)c1=O [III-3, 4-methyl-5-trifluoromethyl-2-(2,6-dichloro-3-carboxy-benzyl)-2,4-dihydro-3H-1,2,4-triazol-3-one]
2 | 109 | COC(=O)c1ccc(Cl)c(Cn2nc(C(F)(F)F)n(C)c2=O)c1Cl [IV-2, 4-methyl-5-trifluoromethyl-2-(2,6-dichloro-3-methoxycarbonyl-benzyl)-2,4-dihydro-3H-1,2,4-triazol-3-one]

System: crop plants such as, for example, corn
Assay: Pre-emergence test, tolerance by crop plants
Assay type: in vivo
Settings: rated after three weeks
Experimental: (§1) Pre-Emergence Test Solvent: 5 parts by weight of acetone Emulsifier: 1 part by weight of alkylaryl polyglycol ether To produce a suitable preparation of active compound, 1 part by weight of active compound is mixed with the stated amount of solvent, the stated amount of emulsifier is added and the concentrate is diluted with water to the desired concentration. Seeds of the test plants are sown in normal soil. After about 24 hours, the soil is sprayed with the preparation of active compound such that the particular amount of active compound is applied per unit area. The concentration of the spray liquor is chosen such that the particular amount of active compound desired is applied in 1000 liters of water per hectare. After three weeks, the degree of damage to plants is rated in % damage in comparison to the development of the untreated control. The figures denote: • 0%=no effect (like untreated control) • 100%=total destruction

Row | SMILES | tolerance by crop plants
3 | CCOc1nn(Cc2cc(C(F)(F)F)ccc2C(=O)c2cnn(CC)c2O)c(=O)n1C [Example 2] | tolerated well
4 | CCn1ncc(C(=O)c2ccc(C(F)(F)F)cc2Cn2nc(SC)n(C)c2=O)c1O [Example 3] | tolerated well

System: weeds
Assay: Post-emergence test, activity against weeds
Assay type: in vivo
Settings: test plants of 5-15 cm sprayed, rated after three weeks
Experimental: Solvent: 5 parts by weight of acetone
Emulsifier: 1 part by weight of alkylaryl polyglycol ether
To produce a suitable preparation of active compound, 1 part by weight of active compound is mixed with the stated amount of solvent, the stated amount of emulsifier is added and the concentrate is diluted with water to the desired concentration.
Test plants of a height of 5-15 cm are sprayed with the preparation of active compound such that the particular amounts of active compound are applied per unit area. The concentration of the spray liquor is chosen such that the particular amounts of active compound desired are applied in 10001 of water/ha.
After three weeks, the degree of damage to the plants is rated in % damage in comparison to the development of the untreated control.
• 0%=no effect (like untreated control) • 100%=total destruction

Row | SMILES | activity against weeds (degree of damage)
5 | CCOc1nn(Cc2cc(C(F)(F)F)ccc2C(=O)c2cnn(CC)c2O)c(=O)n1C [Example 2] | strong activity
6 | CCn1ncc(C(=O)c2ccc(C(F)(F)F)cc2Cn2nc(SC)n(C)c2=O)c1O [Example 3] | strong activity

System: weeds
Assay: Pre-emergence test, activity against weeds
Assay type: in vivo
Settings: soil sprayed about 24 hours after sowing, rated after three weeks
Experimental: as §1

Row | SMILES | activity against weeds (degree of damage)
7 | CCOc1nn(Cc2cc(C(F)(F)F)ccc2C(=O)c2cnn(CC)c2O)c(=O)n1C [Example 2] | strong activity
8 | CCn1ncc(C(=O)c2ccc(C(F)(F)F)cc2Cn2nc(SC)n(C)c2=O)c1O [Example 3] | strong activity

System: not listed separately
Assay: log P by HPLC on reversed-phase column (C 18), acidic range
Assay type: physicochemical
Settings: not given
Experimental: Temperature: 43° C. […] The log P values given in Table 3 were determined in accordance with EEC Directive 79/831 Annex V.A8 by HPLC (High Performance Liquid Chromatography) on a reversed-phase column (C 18). Temperature: 43° C. […] The log P values given in Tables 4 were determined in accordance with EEC Directive 79/831 Annex V.A8 by HPLC (High Performance Liquid Chromatography) on a reversed-phase column (C 18). Temperature: 43° C.

Row | logP | SMILES
9 | logP = 2.06^a) | CCOC(=O)c1ccc(Br)c(Cn2nc(C)n(C)c2=O)c1 [IV-38]
10 | logP = 2.64^a) | CCOC(=O)c1ccc(Br)c(Cn2nc(Br)n(C)c2=O)c1 [IV-39]
11 | logP = 3.23^a) | CCOC(=O)c1ccc(Br)c(Cn2nc(C(F)(F)F)n(C)c2=O)c1 [IV-40]
12 | logP = 3.02^a) | CCOC(=O)c1ccc(Br)c(Cn2nc(C3CC3)n(C3CC3)c2=O)c1 [IV-41]
13 | logP = 3.23^a) | CCOC(=O)c1ccc(Cl)cc1Cn1nc(OCC)n(C2CC2)c1=O [IV-42]
14 | logP = 3.31^a) | CCOC(=O)c1ccc(Cl)cc1Cn1nc(C(F)(F)F)n(C)c1=O [IV-43]
15 | logP = 3.14^a) | CCOC(=O)c1ccc(Cl)cc1Cn1nc(CC)n(OCC)c1=O [IV-44]
16 | logP = 2.42^a) | CCOC(=O)c1ccc([N+](=O)[O-])cc1Cn1nc(OCC)n(C2CC2)c1=O [IV-45]
17 | logP = 2.82^a) | CCOC(=O)c1ccc([N+](=O)[O-])cc1Cn1nc(SC)n(C)c1=O [IV-46]
18 | logP = 3.48^a) | CCOC(=O)c1ccc(C(F)(F)F)cc1Cn1nc(OCC)n(C2CC2)c1=O [IV-47]
19 | logP = 3.38^a) | CCOC(=O)c1ccc(C(F)(F)F)cc1Cn1nc(CC)n(OCC)c1=O [IV-48]
20 | logP = 3.02^a) | CCOC(=O)c1ccc(C(F)(F)F)cc1Cn1nc(SC)n(C)c1=O [IV-49]
21 | logP = 3.91^a) | CCCOC(=O)c1ccc(C(F)(F)F)cc1Cn1nc(OCC)n(C2CC2)c1=O [IV-50]
22 | logP = 2.95^a) | CCOC(=O)c1ccc(Br)cc1Cn1nc(OCC)n(C)c1=O [IV-58]
23 | logP = 2.44^a) | CCOC(=O)c1ccc(Br)cc1CN1C(=O)CCC1=O [IV-60]
24 | logP = 3.34^a) | CCOC(=O)c1ccc(Br)cc1Cn1nc(OC(C)C)n(C)c1=O [IV-65]
25 | logP = 3.38^a) | CCCOc1nn(Cc2cc(Br)ccc2C(=O)OCC)c(=O)n1C [IV-66]
26 | logP = 3.31^a) | CCOC(=O)c1ccc(Br)cc1Cn1nc(OCC(F)(F)F)n(C)c1=O [IV-67]
27 | logP = 2.16^a) | CCOC(=O)c1ccc(Br)cc1Cn1nc2n(c1=O)CCC2 [IV-68]
28 | logP = 2.41^a) | CCOC(=O)c1ccc(Br)cc1Cn1nc2n(c1=O)CCCC2 [IV-69]
29 | logP = 3.51^a) | CCOC(=O)c1ccc(C(F)(F)F)cc1Cn1nc(OC(C)C)n(C)c1=O [IV-70]
30 | logP = 3.54^a) | CCCOc1nn(Cc2cc(C(F)(F)F)ccc2C(=O)OCC)c(=O)n1C [IV-71]
31 | logP = 2.36^a) | CCOC(=O)c1ccc(Br)cc1CN1CCOC1=O [IV-72]
32 | logP = 2.88^a) | CCOC(=O)c1ccc(Br)cc1Cn1nc(C)oc1=O [IV-73]

Row | logP | SMILES
33 | logP = 2.68^a) | CCOC(=O)c1ccc(C(F)(F)F)cc1Cn1cnn(C)c1=O [IV-74]
34 | logP = 2.80^a) | CCOC(=O)c1ccc(Br)cc1Cn1nc(Br)n(C)c1=O [IV-75]
35 | logP = 2.88^a) | CCOC(=O)c1ccc(C(F)(F)F)cc1Cn1nc(COC)n(C2CC2)c1=O [IV-77]
36 | logP = 2.60^a) | CCOC(=O)c1ccc(C(F)(F)F)cc1Cn1nc(COC)n(C)c1=O [IV-78]
37 | logP = 3.35^a) | CCOC(=O)c1ccc(C(F)(F)F)cc1Cn1nc(Br)n(C2CC2)c1=O [IV-79]
38 | logP = 2.86^a) | CCOC(=O)c1ccc(Br)cc1Cn1nc(SC)n(C)c1=O [IV-80]
39 | logP = 2.83^a) | CCOC(=O)c1ccc(Cl)cc1Cn1nc(SC)n(C)c1=O [IV-81]
40 | logP = 2.60^a) | CCOC(=O)c1ccc(Br)cc1Cn1nc(N(C)C)n(C)c1=O [IV-82]
41 | logP = 2.79^a) | CCOC(=O)c1ccc(C(F)(F)F)cc1Cn1nc(N(C)C)n(C)c1=O [IV-85]
42 | logP = 3.45^a) | CCOC(=O)c1ccc(C(F)(F)F)cc1Cn1nc(OCC(F)(F)F)n(C)c1=O [IV-93]
43 | logP = 2.21^a) | CCOC(=O)c1ccc(F)cc1Cn1nc(N(C)C)n(C)c1=O [IV-94]
44 | logP = 2.96^a) | CCCOc1nn(Cc2cc(F)ccc2C(=O)OCC)c(=O)n1C [IV-95]
45 | logP = 2.05^a) | CCOC(=O)c1ccc(F)cc1Cn1nc(COC)n(C)c1=O [IV-96]
46 | logP = 2.50^a) | CCOC(=O)c1ccc(F)cc1Cn1nc(OC)n(C2CC2)c1=O [IV-97]
47 | logP = 2.89^a) | CCOC(=O)c1ccc(F)cc1Cn1nc(OCC)n(C2CC2)c1=O [IV-98]
48 | logP = 2.91^a) | CCOC(=O)c1ccc(C(F)(F)F)cc1CN1N=C(C)C(C)(C)C1=O [IV-99]
49 | logP = 2.58^a) | CCOC(=O)c1ccc(C(F)(F)F)cc1Cn1c(=O)n(C)c(=O)n1C [IV-113]
50 | logP = 1.53^a) | COC(=O)c1ccc(S(C)(=O)=O)cc1Cn1nc(SC)n(C)c1=O [IV-114]
51 | logP = 1.59^a) | CCOc1nn(Cc2cc(S(C)(=O)=O)ccc2C(=O)OC)c(=O)n1C [IV-115]
52 | logP = 2.68^a) | CCOc1nn(Cc2cc(I)ccc2C(=O)OC)c(=O)n1C [IV-116]
53 | logP = 2.74^a) | CCOc1nn(Cc2cc(C(F)(F)F)ccc2C(=O)OC)c(=O)n1C [IV-117]
54 | logP = 2.65^a) | COC(=O)c1ccc(C(F)(F)F)cc1Cn1nc(SC)n(C)c1=O [IV-118]
55 | logP = 2.96^a) | CCOC(=O)c1ccc(C(F)(F)F)cc1Cn1nc(Br)n(C)c1=O [IV-119]

Same assay, conditions: marked a): acidic range, 0.1% aqueous phosphoric acid/acetonitrile gradient, HPLC reversed-phase C 18, 43° C.; Table 1

Row | logP | SMILES
56 | logP = 2.34^a) | CCOc1nn(Cc2cc(C(F)(F)F)ccc2C(=O)c2cnn(CC)c2O)c(=O)n1C [Example 2]
57 | logP = 2.22^a) | CCn1ncc(C(=O)c2ccc(C(F)(F)F)cc2Cn2nc(SC)n(C)c2=O)c1O [Example 3]
